Laboratory results taken from patent US10689394B2, “Thieno[2,3-b]pyridine derivative, quinoline derivative, and use thereof” (The University of Tokyo, priority 2016, dated 2020).

Legend:
[1] = system: binding between 122 types of ALS-related mutant SOD1s and Derlin-1; experiment: Cell-based co-immunoprecipitation with 122 types of ALS-related mutant SOD1s; design: species or system human; details: co-immunoprecipitation at cell level, FIG. 2 to FIG. 9
Protocol: Transfection into the HEK293A cells was carried out using PEI-Max (Polyscience) at a ratio of 3 μL of PEI-Max to 1 μg of plasmid. DMEM was mixed with PEI-Max, and the mixture was then left at rest for 5 minutes. Thereafter, the reaction mixture was added to the plasmid DNA dissolved in DMEM, and the thus obtained mixture was further left at rest for 15 minutes. After seeding, the culture was carried out for 12 to 24 hours, and the resultant was then added to a culture medium of cells, in which the medium had been exchanged with DMEM supplemented only with 10% FBS.
pcDNA3.0-Derlin-1-HA, pcDNA3.0-Flag-SOD1 G93A, and 123 types of other mutants.
After the transfection on a 24-well plate, the cells were cultured for 12 hours or 24 hours, and the obtained cell culture was exchanged with 200 μL of medium. Thereafter, 1% DMSO or various types of compounds having each different concentration were added into the culture. Thirty-six hours or twenty-four hours later, the cells were incubated in the IP lysis buffer (300 μL/well) at 4° C. for 25 minutes, so that the cells were lysed. The cell lysate was centrifuged at 4° C. at 15000 rpm for 10 minutes, and a supernatant was then recovered. To this supernatant, Anti-Flag M2 affinity gel was added in a liquid amount of 20 μL, and they were allowed to react with each other by subjecting the obtained mixture to inversion mixing at 4° C. for 25 minutes. […]

[2] = target: dimerization of SOD1 (Homo sapiens, UniProt P00441); experiment: Inhibition of dimerization of SOD1; format: cell-based; details: under conditions for inhibiting the binding between mutant SOD1 and Derlin-1
Excerpt: (§1) In the above-described SOD1-Derlin-1-binding inhibition experiment, SOD1 G93A that is a representative mutant SOD1 associated with the onset of the pathologic conditions of ALS was used. According to previous studies, however, it has become clear that 122 types of ALS-related mutant SOD1s bind to Derlin-1 (Fujisawa et al., Ann Neurol 72, 739-749, (2012)).

[3] = target: T1, complex formation by Derlin-1 (Homo sapiens, UniProt Q9BUN8); experiment: Inhibition of complex formation by Derlin-1; format: cell-based; details: under conditions for inhibiting the binding between mutant SOD1 and Derlin-1
T1 sequence (Q9BUN8 1-251): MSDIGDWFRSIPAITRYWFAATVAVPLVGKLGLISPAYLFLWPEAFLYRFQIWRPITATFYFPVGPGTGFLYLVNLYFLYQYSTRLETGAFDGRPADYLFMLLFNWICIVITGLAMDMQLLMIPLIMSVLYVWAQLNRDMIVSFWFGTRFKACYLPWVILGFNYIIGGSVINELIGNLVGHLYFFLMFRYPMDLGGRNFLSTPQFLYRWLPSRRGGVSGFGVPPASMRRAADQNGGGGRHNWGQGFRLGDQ
Excerpt: as §1

dimerization of SOD1, sequence (P00441 whole entry): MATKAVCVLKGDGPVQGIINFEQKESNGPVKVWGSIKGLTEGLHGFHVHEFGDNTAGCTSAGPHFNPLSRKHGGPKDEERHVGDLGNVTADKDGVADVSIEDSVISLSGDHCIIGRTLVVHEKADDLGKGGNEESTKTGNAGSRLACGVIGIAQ

C=CCN(C(=O)c1sc2nc(-c3cccnc3)ccc2c1N)c1ccccc1 [Example 1, N-allyl-3-amino-N-phenyl-6-(3-pyridinyl)thieno[2,3-b]pyridine-2-carboxamide]
inhibition of binding between multiple types of mutant SOD1s and Derlin-1 [1]: inhibits the binding between all of the mutant SOD s and Derlin-1 | inhibitory activity on dimerization of SOD1 [2]: did not exhibit inhibitory activity | inhibitory activity on complex formation by Derlin-1 [3]: did not exhibit inhibitory activity
